# Data as given in patent US20230141603A1, “BENZODIAZEPINE DERIVATIVES AS GABA A GAMMA1 PAM” (Hoffmann-La Roche Inc., priority 2021, published 2023).
# Target: T1, h-GABAA α1β2γ1 (Homo sapiens, UniProt P14867+Q8N1C3)
# T1 construct: expressed in transfected cells; host or cells: HEK293F cells (ThermoFisher R79007), membranes
# T1 sequence (P14867 28-456): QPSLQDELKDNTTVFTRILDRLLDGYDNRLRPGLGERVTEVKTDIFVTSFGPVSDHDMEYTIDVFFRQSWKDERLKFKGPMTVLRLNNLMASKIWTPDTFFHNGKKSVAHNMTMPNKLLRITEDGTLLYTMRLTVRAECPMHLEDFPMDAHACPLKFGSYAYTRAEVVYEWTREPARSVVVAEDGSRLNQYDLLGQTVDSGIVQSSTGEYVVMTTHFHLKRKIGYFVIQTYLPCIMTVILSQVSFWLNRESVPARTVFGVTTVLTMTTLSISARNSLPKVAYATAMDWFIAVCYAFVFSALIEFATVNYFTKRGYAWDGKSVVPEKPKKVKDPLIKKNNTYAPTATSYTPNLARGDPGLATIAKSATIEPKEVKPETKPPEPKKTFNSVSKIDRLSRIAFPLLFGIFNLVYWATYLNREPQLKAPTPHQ
# T1 sequence (P47870 25-512 partner limits assumed): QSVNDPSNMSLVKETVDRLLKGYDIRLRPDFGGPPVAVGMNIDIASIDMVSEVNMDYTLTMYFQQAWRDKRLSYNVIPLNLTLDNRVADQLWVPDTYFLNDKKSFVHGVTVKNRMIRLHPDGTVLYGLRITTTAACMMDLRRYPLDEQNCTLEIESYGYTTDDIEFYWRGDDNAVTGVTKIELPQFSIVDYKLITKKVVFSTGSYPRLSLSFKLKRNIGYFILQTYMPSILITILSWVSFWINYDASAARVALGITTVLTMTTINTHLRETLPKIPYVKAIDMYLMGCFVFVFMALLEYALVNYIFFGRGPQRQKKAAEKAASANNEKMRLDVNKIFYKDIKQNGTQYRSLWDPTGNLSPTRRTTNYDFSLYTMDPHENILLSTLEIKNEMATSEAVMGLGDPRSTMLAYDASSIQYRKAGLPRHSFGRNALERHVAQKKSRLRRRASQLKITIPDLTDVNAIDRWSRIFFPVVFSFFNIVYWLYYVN
# T1 sequence (Q8N1C3 36-465): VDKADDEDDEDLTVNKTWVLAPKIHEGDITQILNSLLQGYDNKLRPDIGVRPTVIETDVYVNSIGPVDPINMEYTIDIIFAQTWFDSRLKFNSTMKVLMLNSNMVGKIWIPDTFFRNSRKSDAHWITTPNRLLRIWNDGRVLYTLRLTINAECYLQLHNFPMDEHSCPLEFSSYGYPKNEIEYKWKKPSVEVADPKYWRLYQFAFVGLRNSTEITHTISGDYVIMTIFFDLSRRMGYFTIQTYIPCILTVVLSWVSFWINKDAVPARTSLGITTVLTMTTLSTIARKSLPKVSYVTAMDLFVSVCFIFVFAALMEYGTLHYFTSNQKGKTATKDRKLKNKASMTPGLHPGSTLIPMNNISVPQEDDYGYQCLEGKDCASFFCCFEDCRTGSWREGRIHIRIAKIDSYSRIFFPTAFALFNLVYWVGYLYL
# Experiment: Radioligand binding assay, [3H]RO7239181 competition, HEK293F membranes
row,SMILES,Ki
1,"Cn1cc(-c2nnc3n2-c2ccc(Cl)c(Cl)c2C(c2ncccc2F)=NC3)cn1 [Example 58, 7,8-dichloro-6-(3-fluoro-2-pyridyl)-1-(1-methylpyrazol-4-yl)-4H-[1,2,4]triazolo[4,3-a][1,4]benzodiazepine]",131 nM
2,"O=c1[nH]nc2n1-c1ccc(Cl)c(Cl)c1C(c1ncccc1F)=NC2 [Example 59, 7,8-dichloro-6-(3-fluoro-2-pyridyl)-2,4-dihydro-[1,2,4]triazolo[4,3-a][1,4]benzodiazepin-1-one]",54 nM
3,"Fc1cccnc1C1=NCc2nncn2-c2ccc(Cl)c(Cl)c21 [Example 60, 7,8-dichloro-6-(3-fluoro-2-pyridyl)-4H-[1,2,4]triazolo[4,3-a][1,4]benzodiazepine]",161 nM
4,"COc1ccc2c(c1Cl)C(c1c(F)cccc1F)=NCc1nnc(-c3ccncn3)n1-2 [Example 61, 7-chloro-6-(2,6-difluorophenyl)-8-methoxy-1-pyrimidin-4-yl-4H-[1,2,4]triazolo[4,3-a][1,4]benzodiazepine]",119 nM
5,"COc1ccc2c(c1Cl)C(c1c(F)cccc1F)=NCc1nnc(-c3cccnc3)n1-2 [Example 62, 7-chloro-6-(2,6-difluorophenyl)-8-methoxy-1-(3-pyridyl)-4H-[1,2,4]triazolo[4,3-a][1,4]benzodiazepine]",161 nM
6,"Fc1cccnc1C1=NCc2nnc(C3CC3)n2-c2ccc(Cl)c(Cl)c21 [Example 65, 7,8-dichloro-1-cyclopropyl-6-(3-fluoro-2-pyridyl)-4H-[1,2,4]triazolo[4,3-a][1,4]benzodiazepine]",110 nM
7,"Fc1cccnc1C1=NCc2nnc(-c3ccncn3)n2-c2ccc(C(F)(F)F)c(Cl)c21 [Example 69, 7-chloro-6-(3-fluoro-2-pyridyl)-1-pyrimidin-4-yl-8-(trifluoromethyl)-4H-[1,2,4]triazolo[4,3-a][1,4]benzodiazepine]",139 nM
8,"Cn1cc(-c2nnc3n2-c2ccc(C(F)(F)F)c(Cl)c2C(c2ncccc2F)=NC3)cn1 [Example 70, 7-chloro-6-(3-fluoro-2-pyridyl)-1-(1-methylpyrazol-4-yl)-8-(trifluoromethyl)-4H-[1,2,4]triazolo[4,3-a][1,4]benzodiazepine]",275 nM
9,"Cc1nnc2n1-c1ccc(Cl)c(Cl)c1C(c1ncccc1F)=NC2 [Example 71, 7,8-dichloro-6-(3-fluoro-2-pyridyl)-1-methyl-4H-[1,2,4]triazolo[4,3-a][1,4]benzodiazepine]",178 nM
10,"Fc1cccnc1C1=NCc2nnc(-c3cccnn3)n2-c2ccc(C(F)(F)F)c(Cl)c21 [Example 72, 7-chloro-6-(3-fluoro-2-pyridyl)-1-pyridazin-3-yl-8-(trifluoromethyl)-4H-[1,2,4]triazolo[4,3-a][1,4]benzodiazepine]",274 nM
11,"Fc1cccnc1C1=NCc2nnc(C3CC3)n2-c2ccc(Br)c(Cl)c21 [Example 77, 8-bromo-7-chloro-1-cyclopropyl-6-(3-fluoro-2-pyridyl)-4H-[1,2,4]triazolo[4,3-a][1,4]benzodiazepine]",41.5 nM
12,"Cc1nnc2n1-c1ccc(C(F)(F)F)c(Cl)c1C(c1ncccc1F)=NC2 [Example 78, 7-chloro-6-(3-fluoro-2-pyridyl)-1-methyl-8-(trifluoromethyl)-4H-[1,2,4]triazolo[4,3-a][1,4]benzodiazepine]",67.7 nM
13,"COc1ccc2c(c1Cl)C(c1c(F)cccc1F)=NCc1nnc(C3CC3)n1-2 [Example 79, 7-chloro-1-cyclopropyl-6-(2,6-difluorophenyl)-8-methoxy-4H-[1,2,4]triazolo[4,3-a][1,4]benzodiazepine]",80.1 nM
14,"CO[C@H]1C[C@H](c2nnc3n2-c2ccc(Cl)c(Cl)c2C(c2c(F)cccc2F)=NC3)C1 [Example 91, trans-7,8-dichloro-6-(2,6-difluorophenyl)-1-(3-methoxycyclobutyl)-4H-[1,2,4]triazolo[4,3-a][1,4]benzodiazepine]",51.3 nM
15,"Fc1cccc(F)c1C1=NCc2nnc(-c3cccnn3)n2-c2ccc(Br)c(Cl)c21 [Example 104, 8-bromo-7-chloro-6-(2,6-difluorophenyl)-1-pyridazin-3-yl-4H-[1,2,4]triazolo[4,3-a][1,4]benzodiazepine]",4.2 nM
16,"Cc1ncc2n1-c1ccc(Cl)cc1C(c1ccccc1F)=NC2 [Midazolam, reference compound]",1150 nM
